Patent US8318697B2, “Prophylactic and therapeutic treatment of infectious and other diseases with mono- and disaccharide-based compounds” (Corixa Corporation, priority 2000, dated 2012)
Read-outs that look alike come from different tables or passages of the source.

Key:
human whole blood = format: cell-based; settings: for IL10/TNFα cba: ratio of IL-10 to TNF; for TNFα/IL10 cba: ratio of TNF to IL-10
[1] = tested on: L. monocytogenes 10403 serotype; experiment: Murine Listeria monocytogenes challenge model; format: in vivo, Mice; settings: 1 μg intravenously in 0.2% TEOA, challenge two days later; FIGS. 14-17
Experimental: This example provides experiments evaluating the induction of non-specific resistance in the murine Listeria monocytogenes challenge model performed using various AGPs and MPL. Mice (5 per group) were treated intravenously with the 1 μg of an AGP or MPL solubilized in 0.2% TEOA. Two days later the mice were challenged intravenously with a ˜10^5 L. monocytogenes 10403 serotype (provided by M. L. Gray, Montana State University, Bozeman, Mont.). Two days after the challenge, the mice were sacrificed and the number of colony forming units (CFUs) in the spleens of individual mice were determined by plating 10-fold serial dilutions of splenic homogenates on tryptic soy agar plates. The degree of protection afforded by a given AGP or MPL was calculated by subtracting the average number of bacteria per spleen (log 10 value) in the group of mice treated with a given compound, from the average number of bacteria per spleen (log 10 value) in a control group that was “sham” treated with vehicle (0.2% TEOA) prior to challenge with L. monocytogenes.

[2] = tested on: Ogawa P. gingivalis LPS stimulated whole blood cells; experiment: Inhibition of LPS-induced cytokines in whole blood; format: cell-based, human; settings: 10, 5, 2.5 ug/mL
Source text: Table 4 provides the maximum levels of IL-4, IL-2 and IL-5 obtained, as well as ratios of TNF to IL-10, and ratios of IL-10 to TNF. Inhibition data for IL-8, reported as a percentage, are also provided on the right hand side of Table 4. For example, 90% inhibition would calculate to a 90% reduction of cytokine levels. MIP-1β results were similar. […]

human PBMCs = experiment: Lineage specific cell surface activation markers in human PBMCs; format: cell-based; settings: LPS 10 ng/ml, RC-526 or RC-527 10 μg/ml
Experimental: This experiment describes lineage specific cell surface activation markers in human PBMCs activated with LPS or selected AGPs. PBMCs were harvested from a normal donor and plated at 1×10^7 cells/well in a […] (6 well plate) with 3 ml RPMI. LPS (10 ng/ml), RC-526 (10 μg/ml) or RC-527 (10 μg/ml) were added to each of 4 wells. Cells were harvested from each of 2 wells at 4 hr and 24 hr following activation and immediately stained for the lineage and cell surface activation markers.

influenza A/HK/68 = experiment: Lethal influenza challenge model, intranasal monotherapy; settings: i.n.; for protection against influenza challenge over dose range: doses up to 40 μg, FIG. 12; for protection against influenza challenge, compared by secondary fatty acid chains: FIG. 11, FIG. 13
Experimental: A dose of 20 μg MonoPhosphoryl Lipid A (MPL) was given to groups of female BALB/c mice by intranasal (i.n.) administration either 2 days prior to or the day of lethal influenza challenge. All mice were challenged with approximately 2 LD50 infectious influenza A/HK/68 administered i.n. Mortality was monitored for 21 days following influenza challenge.
A dose of 20 μg L-Seryl AGPs (RC-526, RC-554, RC-555, RC-537, RC-527, RC-538, RC-560, RC-512 and vehicle only) was given to groups of female BALB/c mice by intranasal (i.n.) administration 2 days prior to or the day of lethal influenza challenge. All mice were challenged with approximately 2 LD50 infectious influenza A/HK/68 administered i.n. The disease index (ruffled fur, hunched posture and labored breathing) was monitored during days 4-19 following influenza challenge. Weight loss and mortality were monitored for 21 days following influenza challenge.

[3] = tested on: human peripheral blood mononuclear cells (PBMC); experiment: Cytokine elaboration from frozen human PBMC (ELISA); format: cell-based; settings: PBMC donor AD112, 22 hours; FIG. 9
Experimental: PBMC were stored frozen until used. PBMC donor designation was AD112. PBMC at a density of 6.26×10^5 were plated per well in a 48 well plate in 1.0 ml of medium. Medium consisted of RPMI-1640 plus sodium bicarbonate, 10% fetal bovine serum, 4 mM glutamine, 100 ug/ml gentamicin and 10 mM HEPES. PBMC were cultured for 22 hours at 37° C. in a carbon dioxide incubator. Supernatants were harvested and tested by ELISA (R&D Systems) for IL-6, IL-8, IL-10 and MIP-1 beta concentration. Cytokine concentration in supernatants was compared to supernatants obtained from unstimulated PBMC cultured identically.

CCCCCCCCCCC[C@H](CC(=O)NCCO[C@@H]1O[C@H](CO)[C@@H](OP(=O)(O)O)[C@H](OC(=O)C[C@@H](CCCCCCCCCCC)OC(=O)CCCCCCCCC)[C@H]1NC(=O)C[C@@H](CCCCCCCCCCC)OC(=O)CCCCCCCCC)OC(=O)CCCCCCCCC.CCN(CC)CC [RC-524]
IL10/TNFα cba (human whole blood; donor 1): 1.8 | TNFα/IL10 cba (human whole blood; donor 1): 0.2 | IL10/TNFα cba (human whole blood; donor 2): 4 | TNFα/IL10 cba (human whole blood; donor 2): 0.3 | protection against L. monocytogenes challenge (reduction of log 10 bacteria per spleen vs vehicle) [1]: protection that was equal to or greater than that provided by MPL

CCCCCCCCCCC[C@H](CC(=O)N[C@H]1[C@H](OC[C@H](NC(=O)C[C@@H](CCCCCCCCCCC)OC(=O)CCCCC)C(=O)O)O[C@H](CO)[C@@H](OP(=O)(O)O)[C@@H]1OC(=O)C[C@@H](CCCCCCCCCCC)OC(=O)CCCCC)OC(=O)CCCCC.CCN(CC)CC [RC-526]
IL-1β cba2 (human whole blood; donor 1): 256 | IL10/TNFα cba (human whole blood; donor 2): 1.2 | TNFα/IL10 cba (human whole blood; donor 2): 0.9 | cytokine stimulation in human whole blood cultures (human whole blood; overnight culture): little if any cytokine stimulation | % inhib. LPS IL-8 [2]: 99% | CD3+ CD69+ percent expression in NK-Cells (CD56+) (human PBMCs; 4 hr activation): 1% | CD25+ percent expression in B-cells (CD19+) (human PBMCs; 4 hr activation): 0% | CD25+ percent expression in Mono/Macs (CD14+) (human PBMCs; 4 hr activation): 1% | CD69+ percent expression in B-cells (CD19+) (human PBMCs; 4 hr activation): 11% | CD69+ percent expression in Mono/Macs (CD14+) (human PBMCs; 4 hr activation): 1% | CD69+ percent expression in NK-Cells (CD56+) (human PBMCs; 4 hr activation): 4% | CD69+ percent expression in T-cells (CD3+) (human PBMCs; 4 hr activation): 1% | CD86+ percent expression in B-cells (CD19+) (human PBMCs; 4 hr activation): 4% | CD95+ percent expression in B-cells (CD19+) (human PBMCs; 4 hr activation): 6% | MFI CD11b+ in Mono/Macs (CD14+) (human PBMCs; 4 hr activation): 2154 | MFI CD54+ (ICAM-1) in B-cells (CD19+) (human PBMCs; 4 hr activation): 55 | MFI CD54+(ICAM-1) in Mono/Macs (CD14+) (human PBMCs; 4 hr activation): 502 | TLR2+ percent expression in Mono/Macs (CD14+) (human PBMCs; 4 hr activation): 93% | CD3+ CD69+ percent expression in NK-Cells (CD56+) (human PBMCs; 24 hr activation): 2% | CD14+ CD25+ percent expression in Mono/Macs (CD14+) (human PBMCs; 24 hr activation): 1% | CD14+ CD69+ percent expression in Mono/Macs (CD14+) (human PBMCs; 24 hr activation): 2% | CD14+ TLR2+ percent expression in Mono/Macs (CD14+) (human PBMCs; 24 hr activation): 79% | CD19+ CD25+ percent expression in B-Cells (CD19+) (human PBMCs; 24 hr activation): 9% | CD19+ CD69+ percent expression in B-Cells (CD19+) (human PBMCs; 24 hr activation): 22% | CD19+ CD86+ percent expression in B-Cells (CD19+) (human PBMCs; 24 hr activation): 22% | CD19+ CD95+ percent expression in B-Cells (CD19+) (human PBMCs; 24 hr activation): 15% | CD69+ percent expression in NK-Cells (CD56+) (human PBMCs; 24 hr activation): 4% | CD69+ percent expression in T-cells (CD3+) (human PBMCs; 24 hr activation): 2% | MFI CD11b+ in Mono/Macs (CD14+) (human PBMCs; 24 hr activation): 1986 | MFI CD54+ (ICAM-1) in B-cells (CD19+) (human PBMCs; 24 hr activation): 118 | MFI CD54+(ICAM-1) in Mono/Macs (CD14+) (human PBMCs; 24 hr activation): 1590 | protection against influenza challenge over dose range (influenza A/HK/68): no difference in protection up to doses of 40 μg

CCCCCCCCCCC[C@H](CC(=O)N[C@H]1[C@H](OC[C@H](NC(=O)C[C@@H](CCCCCCCCCCC)OC(=O)CCCCCCCCC)C(=O)O)O[C@H](CO)[C@@H](OP(=O)(O)O)[C@@H]1OC(=O)C[C@@H](CCCCCCCCCCC)OC(=O)CCCCCCCCC)OC(=O)CCCCCCCCC.CCN(CC)CC [RC-527]
IL-1β cba2 (human whole blood; donor 1): 7102 | IL10/TNFα cba (human whole blood; donor 1): 0.4 | TNFα/IL10 cba (human whole blood; donor 1): 2.5 | IL10/TNFα cba (human whole blood; donor 2): 0.3 | TNFα/IL10 cba (human whole blood; donor 2): 3.4 | % inhib. LPS IL-8 [2]: 5% | CD3+ CD69+ percent expression in NK-Cells (CD56+) (human PBMCs; 4 hr activation): 11% | CD25+ percent expression in B-cells (CD19+) (human PBMCs; 4 hr activation): 0% | CD25+ percent expression in Mono/Macs (CD14+) (human PBMCs; 4 hr activation): 1% | CD69+ percent expression in B-cells (CD19+) (human PBMCs; 4 hr activation): 56% | CD69+ percent expression in Mono/Macs (CD14+) (human PBMCs; 4 hr activation): 22% | CD69+ percent expression in NK-Cells (CD56+) (human PBMCs; 4 hr activation): 40% | CD69+ percent expression in T-cells (CD3+) (human PBMCs; 4 hr activation): 10% | CD86+ percent expression in B-cells (CD19+) (human PBMCs; 4 hr activation): 8% | CD95+ percent expression in B-cells (CD19+) (human PBMCs; 4 hr activation): 7% | MFI CD11b+ in Mono/Macs (CD14+) (human PBMCs; 4 hr activation): 1870 | MFI CD54+ (ICAM-1) in B-cells (CD19+) (human PBMCs; 4 hr activation): 65 | MFI CD54+(ICAM-1) in Mono/Macs (CD14+) (human PBMCs; 4 hr activation): 743 | TLR2+ percent expression in Mono/Macs (CD14+) (human PBMCs; 4 hr activation): 85% | CD3+ CD69+ percent expression in NK-Cells (CD56+) (human PBMCs; 24 hr activation): 16% | CD14+ CD25+ percent expression in Mono/Macs (CD14+) (human PBMCs; 24 hr activation): 70% | CD14+ CD69+ percent expression in Mono/Macs (CD14+) (human PBMCs; 24 hr activation): 22% | CD14+ TLR2+ percent expression in Mono/Macs (CD14+) (human PBMCs; 24 hr activation): 97% | CD19+ CD25+ percent expression in B-Cells (CD19+) (human PBMCs; 24 hr activation): 34% | CD19+ CD69+ percent expression in B-Cells (CD19+) (human PBMCs; 24 hr activation): 66% | CD19+ CD86+ percent expression in B-Cells (CD19+) (human PBMCs; 24 hr activation): 51% | CD19+ CD95+ percent expression in B-Cells (CD19+) (human PBMCs; 24 hr activation): 73% | CD69+ percent expression in NK-Cells (CD56+) (human PBMCs; 24 hr activation): 50% | CD69+ percent expression in T-cells (CD3+) (human PBMCs; 24 hr activation): 10% | MFI CD11b+ in Mono/Macs (CD14+) (human PBMCs; 24 hr activation): 1611 | MFI CD54+ (ICAM-1) in B-cells (CD19+) (human PBMCs; 24 hr activation): 211 | MFI CD54+(ICAM-1) in Mono/Macs (CD14+) (human PBMCs; 24 hr activation): 4445 | protection against L. monocytogenes challenge (reduction of log 10 bacteria per spleen vs vehicle) [1]: protection that was equal to or greater than that provided by MPL | protection against influenza challenge over dose range (influenza A/HK/68): maximum protection over a dose range of 2.5 μg to 40 μg

CCCCCCCCCCCCCC(=O)O[C@H](CCCCCCCCCCC)CC(=O)NCCO[C@@H]1O[C@H](CO)[C@@H](OP(=O)(O)O)[C@H](OC(=O)C[C@@H](CCCCCCCCCCC)OC(=O)CCCCCCCCCCCCC)[C@H]1NC(=O)C[C@@H](CCCCCCCCCCC)OC(=O)CCCCCCCCCCCCC.CCN(CC)CC [RC-529]
IL10/TNFα cba (human whole blood; donor 1): 6.2 | TNFα/IL10 cba (human whole blood; donor 1): 0.4 | IL-6 elaboration compared to MPL [3]: induced more IL-6, IL-10 and MIP-1 beta than did MPL | IL-10 elaboration compared to MPL [3]: induced more IL-6, IL-10 and MIP-1 beta than did MPL | MIP-1 beta elaboration compared to MPL [3]: induced more IL-6, IL-10 and MIP-1 beta than did MPL

CCCCCCCCCCC[C@H](CC(=O)N[C@H](CO)CCO[C@@H]1O[C@H](CO)[C@@H](OP(=O)(O)O)[C@H](OC(=O)C[C@@H](CCCCCCCCCCC)OC(=O)CCCCCCCCC)[C@H]1NC(=O)C[C@@H](CCCCCCCCCCC)OC(=O)CCCCCCCCC)OC(=O)CCCCCCCCC.CCN(CC)CC [RC-540]
IL10/TNFα cba (human whole blood; donor 1): 5.5 | TNFα/IL10 cba (human whole blood; donor 1): 0.2 | IL10/TNFα cba (human whole blood; donor 2): 5.2 | TNFα/IL10 cba (human whole blood; donor 2): 0.2 | protection against L. monocytogenes challenge (reduction of log 10 bacteria per spleen vs vehicle) [1]: protection that was equal to or greater than that provided by MPL

CCCCCCCCCCC[C@H](CC(=O)N[C@H]1[C@H](OC[C@H](NC(=O)C[C@@H](CCCCCCCCCCC)OC(=O)CCCCCCCCC)C(=O)O)O[C@H](CO)[C@@H](OP(=O)(O)O)[C@@H]1OC(=O)C[C@@H](CCCCCCCCCCC)OC(=O)CCCCCCCCC)OC(=O)CCCCC.CCN(CC)CC [RC-565]
% inhib. LPS IL-8 [2]: 16% | protection against influenza challenge, compared by secondary fatty acid chains (influenza A/HK/68): more protective than those having fewer

CCCCCCCCCCC[C@H](CC(=O)N[C@H]1[C@H](OC[C@H](NC(=O)C[C@@H](CCCCCCCCCCC)OC(=O)CCCCC)C(=O)O)O[C@H](CO)[C@@H](OP(=O)(O)O)[C@@H]1OC(=O)C[C@@H](CCCCCCCCCCC)OC(=O)CCCCCCCCC)OC(=O)CCCCCCCCC.CCN(CC)CC [RC-569]
% inhib. LPS IL-8 [2]: −13% | protection against influenza challenge, compared by secondary fatty acid chains (influenza A/HK/68): more protective than those having fewer
